The numbers were not newly measured in patent US20120121700A1, “PHARMACEUTICAL FORMULATIONS COMPRISING VALGANCICLOVIR” (priority 2010, published 2012), which cites them from elsewhere.

The conditions of the data set: oral administration; background statement taken from U.S. Pat. No. 6,083,953.

Take `CC(C)[C@H](N)C(=O)OCC(CO)OCn1cnc2c(=O)[nH]c(N)nc21.Cl` (stereo partly drawn) [Valganciclovir hydrochloride, L-valine, 2-[(2-amino-1,6-dihydro-6-oxo-9H-purin-9-yl)methoxy]-3-hydroxypropyl ester, monohydrochloride]: the “bioavailability when administered orally” value is given as “better bioavailability than ganciclovir given orally”.

Regarding `Nc1nc(O)c2ncn(COC(CO)CO)c2n1` [gancilcovir, ganciclovir], the “bioavailability when administered orally” value is on record as “poor”.
